The source of these data is publication PMC7467771, “Lipophilic Arginine Esters: The Gateway to Preservatives without Side Effects” (Molecular Pharmaceutics, 2020).

Data set [1] is described as follows: octanol/water partition coefficient (log P) by TNBS assay. The class given is physicochemical. The following applies: octanol/water mixture 1:1 v/v; mean, n = 3. On the procedure: Log P of Arg and both Arg-esters were determined using an already described method.[15] Each compound was dissolved in an octanol/water mixture (1:1, v/v). Afterward, octanol and water phases were separated by a high-speed mini centrifuge (Fisher Scientific, Illinois USA), and the concentration of each compound in each phase was determined by the TNBS assay. For this, a 50 μL volume from each phase was diluted 10 times with 0.1 M sodium bicarbonate (pH 8.5) containing 40% (v/v) isopropyl alcohol. After dilution, 250 μL of the TNBS reagent (0.01%, v/v) prepared in 0.1 M sodium bicarbonate (pH 8.5) was added to each sample that was incubated at 37 °C. After 2 h, the reaction was stopped by adding 250 μL of 10% (m/v) SDS and 125 μL of 1 M HCl. The absorbance of each sample was measured at 335 nm using a Spark multifunctional microplate reader (Tecan Austria, GmbH). The logarithm of the octanol/water absorbance ratio was expressed as log P for each sample.

The test system of data set [2] is lipase from porcine pancreas. The data set is described as follows: degradation of arginine esters by lipase (pH-stat titration). The class given is in vitro ADME. As to conditions: within 3 h, 1 mM ester, pH 6.8, 37 °C. Here is the method:
Lipase-catalyzed hydrolytic degradation of Arg-OL and Arg-DT esters was carried out using a previously described experimental setup.[16] Digestion medium consisted of 2 mM Tris buffer with 5 mM CaCl2 and 150 mM NaCl. The medium pH was adjusted to 6.8. Lipase solution was freshly prepared before the experiment as follows: 0.5 g of lipase was mixed for 10 min in 10 mL of digestion medium, followed by centrifugation at 12 000 rpm and 4 °C for 15 min. The supernatant was collected for the degradation test and ice-stored until use. For the degradation test, solutions of Arg-OL and Arg-DT were prepared in the concentration of 1 mM in digestion buffer, and the pH was adjusted to 6.8 using 0.5 M NaOH. Thereafter, 2 mL of lipase solution was added to 18 mL of the Arg-surfactant solution to initiate ester degradation under continuous stirring at 37 °C. The ester hydrolysis was reflected by monitoring the drop in pH due to the release of arginine and titrated to keep the pH at 6.8 with the addition of 0.5 M NaOH. The experiment was continued for 3 h. Back-titration was also performed at the end of the experiment by raising the pH to 9, and additional consumption of the NaOH volume reflected the nonionized form of an amino acid. […]

Data set [3] relates to red blood cells (RBC). The data set is described as follows: hemolysis study. The class given is cell-based. The following applies: human RBC, 1 h, 37 °C, PBS pH 7.4. Here is the method: The hemolysis test was performed with red blood cells (RBC) to evaluate the potential toxic effect of Arg-surfactants on human cells.[18] Human RBC concentrate was kindly donated by the Tirol Kliniken GmbH, Innsbruck, Austria, and stored at 4 °C until use. RBC concentrate (0.556 mL) was freshly diluted by adding sterile Dulbecco’s PBS (pH 7.4) (1.944 mL) before the test to obtain an equivalent amount of whole blood (EWB). Then EWB was 50 times diluted in sterile Dulbecco’s PBS (pH 7.4). The diluted blood on visual inspection was turbid and settled down upon leaving undisturbed, indicating no cell lysis. Arg-surfactant stock solutions were prepared in the concentration range of 10–5000 μg mL^–1 in PBS. For comparison, BAC and cetrimide solutions were prepared in the same concentration range in PBS. For the assay, 10 μL of each test sample was mixed with 190 μL of diluted blood, resulting in the testing final concentrations of 0.5–250 μg mL^–1. For the positive control, 10 μL of 20% v/v Triton X-100 and, for the negative control, 10 μL of sterile Dulbecco’s PBS were mixed with 190 μL of diluted blood. All samples and controls were incubated for 1 h at 37 °C with shaking. After centrifugation at 10 000 rpm for 60 s, aliquots of 100 μL were withdrawn from the supernatants and transferred to a 96-well plate. Absorbance was measured at a wavelength of 420 nm. The extent of hemolysis as a percentage was determined by using the following equation: [drawing 6]

For data set [4], the system named is Bacillus subtilis ATCC 6633. Put plainly: disk diffusion method. The class given is cell-based. As to conditions: Bacillus subtilis, ATCC6633, read-out: zones of inhibition. On the procedure: (§1) Following bacterial strains were used for antimicrobial susceptibility testing: Escherichia coli ATCC 25922, Staphylococcus aureus ATCC 29213, Bacillus subtilis ATCC 6633, and Enterococcus faecalis ATCC 19433, which were obtained from the American Type Culture Collection (ATCC, Virginia, USA).
(§2) The disk diffusion method was used for the initial assessment of the antimicrobial activity of Arg-esters. Mueller Hinton agar (MHA, Biomerieux) medium was prepared according to the manufacturer protocol and poured into Petri dishes. All testing microorganisms were dissolved in saline and set to a 0.5 McFarland standard turbidity. This corresponds to a bacterial concentration of 1.5 × 10^8 colony-forming units per milliliter (CFU mL^–1). The bacterial suspension was then swabbed over solidified MHA Petri dishes ensuring homogeneous distribution. The test solutions of Arg-OL, Arg-DT, BAC, and cetrimide were prepared in water with 10% (v/v) DMSO at a concentration of 10 mg mL^–1. Water with 10% (v/v) DMSO was used as a negative control. The diffusion disks of about 6 mm in diameter were prepared from Whatman filter paper. After immersing disks in the above-prepared test solutions, they were placed on MHA plates already swabbed with different bacteria. After overnight incubation of Petri dishes at 37 °C, clear zones of bacterial growth inhibition around disks were measured.
On the technique in general: A growth-free zone around the sample is the usual read-out of agar diffusion tests.

Data set [5] has as its system Enterococcus faecalis ATCC 19433. Put plainly: disk diffusion method. The data set is classed as cell-based. The following applies: Enterococcus faecalis, ATCC19433, read-out: zones of inhibition. Here is the method:
as §1, §2

Data set [6] concerns Escherichia coli ATCC 25922. Put plainly: disk diffusion method. The following applies: Escherichia coli, ATCC25922, read-out: zones of inhibition. The class given is cell-based. On the procedure: as §1, §2
Data set [7] relates to Staphylococcus aureus ATCC 29213. Put plainly: disk diffusion method. As to conditions: Staphylococcus aureus, ATCC29213, read-out: zones of inhibition. The class given is cell-based. On the procedure: as §1, §2

The term logP denotes the decadic logarithm of the partition coefficient of the neutral form, usually between octanol and water. Take `CCCCCCCCCCCCC(CCCCCCCCCC)COC(=O)[C@@H](N)CCCNC(=N)N.O=C(O)C(F)(F)F` (some centres unmarked) [Arg-DT, 2-Decyltetradecyl Argininate Trifluoroacetate]: in data set [1], the logP amounted to 0.6. Besides, in data set [2], the “percentage of arginine ester cleaved by lipase” value stood at 85%. The “HC50 (concentration causing lysis of 50% red blood cells)” value in data set [3] is 125 μg mL^–1. In addition, the zone of inhibition at 10 µg/mL was 18 mm in data set [4], 16 mm in data set [5], 9 mm in data set [6] and 16 mm in data set [7].
Take `CCCCCCCCC=CCCCCCCCCOC(=O)[C@@H](N)CCCNC(=N)N.O=C(O)C(F)(F)F` [Arg-OL, Octadec-9-en-1-yl Argininate Trifluoroacetate]: the logP in data set [1] came out at 0.3. Besides, the “percentage of arginine ester cleaved by lipase” value in data set [2] is reported as 93%. For the same compound, the “HC50 (concentration causing lysis of 50% red blood cells)” value in data set [3] amounted to 60 μg mL^–1. Further, the zone of inhibition at 10 µg/mL in data set [4] amounted to 16 mm; in data set [5] it was 18 mm; in data set [6], 9 mm; in data set [7], 19 mm.
